Literature values as cited in article PMC8568133, “Evaluation of bisphenylthiazoles as a promising class for combating multidrug-resistant fungal infections” (PLoS ONE, 2021).
Converted amounts (≈) assume the structure as drawn.

How the values were obtained:
[1] = set-up: method as in PMID 30247876; conditions: reactive metabolite formation, previous observations; cited from earlier work
MRSA USA300 = tested on: MRSA USA300; set-up: method as in PMID 30247876; conditions: previous observations; cited from earlier work

## Cc1nc(-c2ccc(-c3ccccc3)cc2)sc1-c1nnc(NN)o1 [Compound 1]
[1]
  GSH trap: +ve
MRSA USA300
  MIC (MRSA): 3 µg/mL (≈ 8.59 µM)
